Reference: US4990613A, “(1R,5S,6S)-2-[(6,7-dih ydro-5H-pyrazolo[1,2-a][1,2,4]triazolium-6-yl)]thio-6-[R-1-hydroxyethyl]- 1-methyl-carbapenem-3-carboxylate and intermediate therefor” (Lederle (Japan), Ltd., priority 1987, dated 1991)

Key:
physchem = details: amorphous solid storage
[1] = system: Swine Kidney Dehydropeptidase-I (DHP-I); experiment: Hydrolysis activity against DHP-I enzyme substrate by late assay; type: in vitro ADME; details: final substrate concentration 100 μM, 10 minutes, pH 7.1
Experimental: The swine kidney (8 kg) was homogenized and an enzyme protein was allowed to precipitate. After a connective lipid was removed with acetone, the resultant material was made soluble by treatment with butanol and purified in the order by the ammonium sulfate fraction method, thereby producing DPH-I enzyme from a 75% ammonium sulfate fraction.
The DHP-I enzyme was then adjusted to give an enzyme concentration of 25 mg/10 ml (phosphate buffer, pH 7.1), and divided into 1 ml portions. The portions were frozen and stored at -40° C. or less until use.
As control compounds were employed glycyl dehydrophenylalanine (Gl-dh-Ph) and imipenem, and they were adjusted in situ each to give the concentration of 177 μM with the same sodium phosphate buffer solution.
To 1.2 ml of a 50 mM sodium phosphate buffer solution (substrate) containing 177 μM of each of Gh-dh-Ph and imipenem as the control compounds was added 0.2 ml of the DHP-I enzyme solution (25 mg/10 ml) prepared above in the final substrate concentration of 100 μM. The solution was then incubated at […] for 10 minutes. An initial velocity of hydrolysis of the substrate was measured from a decrease in absorbency at a particular λmax of each of the substrates.
A blank test was conducted in substantially the same manner as above by adding 0.2 ml of the sodium phosphate buffer solution (pH 7.1) to 1.2 ml of the above substrate.

[2] = system: Escherichia coli K12 C600; experiment: Antibacterial test, agar plate dilution method; type: cell-based; details: 37° C., 18 hours, MH agar
[3] = system: Salmonella enteritidis G14; experiment: Antibacterial test, agar plate dilution method; details: 37° C., 18 hours, MH agar
Salmonella typhi 901 = experiment: Antibacterial test, agar plate dilution method; type: cell-based; details: 37° C., 18 hours, MH agar
[4] = system: Klebsiella pneumoniae PCI-602; experiment: Antibacterial test, agar plate dilution method; details: 37° C., 18 hours, MH agar
[5] = system: Escherichia coli NIHJ JC-2; experiment: Antibacterial test, agar plate dilution method; details: 37° C., 18 hours, MH agar
[6] = system: Enterobacter aerougenes ATCC13048; experiment: Antibacterial test, agar plate dilution method; details: 37° C., 18 hours, MH agar
[7] = system: Staphylococcus aureus Terajima; experiment: Antibacterial test, agar plate dilution method; details: 37° C., 18 hours, MH agar
Enterobacter cloacae 963 = experiment: Antibacterial test, agar plate dilution method; details: 37° C., 18 hours, MH agar
[8] = system: Serratia marcescens IAM1184; experiment: Antibacterial test, agar plate dilution method; details: 37° C., 18 hours, MH agar
[9] = system: Pseudomonas aeruginosa IFO 3445; experiment: Antibacterial test, agar plate dilution method; details: 37° C., 18 hours, MH agar
Proteus vulgaris HX-19 = experiment: Antibacterial test, agar plate dilution method; details: 37° C., 18 hours, MH agar
[10] = system: Salmonella paratyphi 1015; experiment: Antibacterial test, agar plate dilution method; type: cell-based; details: 37° C., 18 hours, MH agar
[11] = system: Pseudomonas aeruginosa NCTC 10490; experiment: Antibacterial test, agar plate dilution method; details: 37° C., 18 hours, MH agar
Proteus vulgaris OX-19 = experiment: Antibacterial test, agar plate dilution method; details: 37° C., 18 hours, MH agar
[12] = system: Staphylococcus aureus FDA 209P JC-1; experiment: Antibacterial test, agar plate dilution method; details: 37° C., 18 hours, MH agar
[13] = system: Proteus mirabilis IFO3849; experiment: Antibacterial test, agar plate dilution method; details: 37° C., 18 hours, MH agar
[14] = system: Bacillus subtilis ATCC6633; experiment: Antibacterial test, agar plate dilution method; details: 37° C., 18 hours, MH agar
[15] = system: Providencia rettgeri IFO 3850; experiment: Antibacterial test, agar plate dilution method; details: 37° C., 18 hours, MH agar
[16] = system: Citrobactor freundii GN 346; experiment: Antibacterial activity against clinically isolated β-lactamase producing strains; type: cell-based; details: cephalosporinase producing strain, 18 to 20 hours
Experimental: (§1) A solution of a cephalosporinase producing strain stored by Episome Research Institute, which was prepared by incubating the strain in a sensitivity test broth (STB; product of Nissui K.K.) for 18 hours, was diluted with a fresh STB solution to contain 10^5 cells per milliliter and the diluted solution was then inoculated as spots with a microplanter on a sensitivity disk agar-N (SDA; product of Nissui K.K.) containing a test compound. The disk agar was then incubated for 18 to 20 hours. A minimum inhibitory concentration was determined as a minimum concentration in which the test microorganism had no longer grown after a 18 to 20 hour incubation.

[17] = system: Escherichia coli No. 1501; experiment: as above; type: cell-based; details: cephalosporinase producing strain, 18 to 20 hours
Experimental: as §1

[18] = system: Enterobacter cloacae GN 7467; experiment: as above; type: cell-based; details: cephalosporinase producing strain, 18 to 20 hours
Experimental: as §1

[19] = system: Pseudomonas aeruginosa GN 918; experiment: as above; type: cell-based; details: cephalosporinase producing strain, 18 to 20 hours
Experimental: as §1

[20] = system: Pseudomonas aeruginosa GN 10367; experiment: as above; type: cell-based; details: cephalosporinase producing strain, 18 to 20 hours
Experimental: as §1

Proteus morganii GN 5307 = experiment: as above; type: cell-based; details: cephalosporinase producing strain, 18 to 20 hours
Experimental: as §1

Proteus vulgaris GN 76 = experiment: as above; type: cell-based; details: cephalosporinase producing strain, 18 to 20 hours
Experimental: as §1

[21] = system: Klebsiella oxytoca GN 10650; experiment: as above; type: cell-based; details: cephalosporinase producing strain, 18 to 20 hours
Experimental: as §1

Proteus vulgaris GN 4413 = experiment: as above; type: cell-based; details: cephalosporinase producing strain, 18 to 20 hours
Experimental: as §1

[22] = system: Enterobacter cloacae GN 7471; experiment: as above; type: cell-based; details: cephalosporinase producing strain, 18 to 20 hours
Experimental: as §1

[23] = system: Citrobactor freundii GN 7391; experiment: as above; type: cell-based; details: cephalosporinase producing strain, 18 to 20 hours
Experimental: as §1

Proteus vulgaris GN 7919 = experiment: as above; type: cell-based; details: cephalosporinase producing strain, 18 to 20 hours
Experimental: as §1

[24] = system: Providencia rettgeri GN 4430; experiment: as above; type: cell-based; details: cephalosporinase producing strain, 18 to 20 hours
Experimental: as §1

[25] = system: Providencia rettgeri GN 4762; experiment: as above; type: cell-based; details: cephalosporinase producing strain, 18 to 20 hours
Experimental: as §1

Escherichia coli No. 96 = experiment: as above; type: cell-based; details: cephalosporinase producing strain, 18 to 20 hours
Experimental: as §1

Escherichia coli GN 5482 = experiment: as above; type: cell-based; details: cephalosporinase producing strain, 18 to 20 hours
Experimental: as §1

Serratia marcescens L-65 = experiment: as above; type: cell-based; details: cephalosporinase producing strain, 18 to 20 hours
Experimental: as §1

[26] = system: Enterobacter cloacae GN 5797; experiment: as above; type: cell-based; details: cephalosporinase producing strain, 18 to 20 hours
Experimental: as §1

Proteus morganii GN 5407 = experiment: as above; type: cell-based; details: cephalosporinase producing strain, 18 to 20 hours
Experimental: as §1

[27] = system: Pseudomonas aeruginosa GN 10362; experiment: as above; type: cell-based; details: cephalosporinase producing strain, 18 to 20 hours
Experimental: as §1

[28] = system: Providencia rettgeri GN 5284; experiment: as above; type: cell-based; details: cephalosporinase producing strain, 18 to 20 hours
Experimental: as §1

[29] = system: Pseudomonas cepacia GN 11164; experiment: as above; type: cell-based; details: cephalosporinase producing strain, 18 to 20 hours
Experimental: as §1

Serratia marcescens L-82 = experiment: as above; type: cell-based; details: cephalosporinase producing strain, 18 to 20 hours
Experimental: as §1

[30] = system: Serratia marcescens GN 10857; experiment: as above; type: cell-based; details: cephalosporinase producing strain, 18 to 20 hours
Experimental: as §1

Proteus morganii GN 5375 = experiment: as above; type: cell-based; details: cephalosporinase producing strain, 18 to 20 hours
Experimental: as §1

[31] = system: Salmonella typhimurium IID971; experiment: Antibacterial test, agar plate dilution method; details: 37° C., 18 hours, MH agar
[32] = system: Staphylococcus aureus MS352; experiment: Antibacterial test, agar plate dilution method; details: 37° C., 18 hours, MH agar
[33] = system: Streptococcus pyogenes Cook; experiment: Antibacterial test, agar plate dilution method; details: 37° C., 18 hours, MH agar
[34] = system: Micrococcus luteus ATCC9341; experiment: Antibacterial test, agar plate dilution method; details: 37° C., 18 hours, MH agar
[35] = system: Morganella morganii IFO3848; experiment: Antibacterial test, agar plate dilution method; details: 37° C., 18 hours, MH agar
[36] = system: Salmonella schottmuelleri 8006; experiment: Antibacterial test, agar plate dilution method; details: 37° C., 18 hours, MH agar

Molecule `C[C@@H](O)[C@H]1C(=O)N2C(C(=O)[O-])=C(SC3Cn4cnc[n+]4C3)[C@H](C)[C@H]12` (stereo partly drawn) [amorphous form] has a remaining at 240 h (physchem) of ~40%.

In the case of `NCC(=O)NC(=Cc1ccccc1)C(=O)O` [Gl-dh-Ph, glycyl dehydrophenylalanine], the “initial velocity of hydrolysis against DHP-I” value [1] is reported as 17.4 µM/min.

“(1R, 5S, 6S)-2-[4-pyrazolidinyl]thio-6-[(R)-1-hydroxyethyl]-1-methyl-carbapenem-3-carboxylic acid [Compound 14]” gave an MIC [2] of 0.2 µg/mL, an MIC [3] of 0.2 µg/mL and an MIC (Salmonella typhi 901) of 0.025 µg/mL. For the same molecule, the MIC [4] was 0.05 µg/mL, the MIC [5] was 0.05 µg/mL and the MIC [6] was 0.39 µg/mL. For the same molecule, the MIC [7] was 0.025 µg/mL, the MIC (Enterobacter cloacae 963) was 0.1 µg/mL and the MIC [8] was 0.2 µg/mL. For the same molecule, the MIC [9] was 0.78 µg/mL, the MIC (Proteus vulgaris HX-19) was 0.1 µg/mL and the MIC [10] was 0.39 µg/mL. For the same molecule, the MIC [11] was 0.78 µg/mL, the MIC (Proteus vulgaris OX-19) was 0.025 µg/mL and the MIC [12] was 0.05 µg/mL. It also gave an MIC [13] of 0.39 µg/mL, an MIC [14] of 0.1 µg/mL and an MIC [15] of 0.2 µg/mL. The MIC [16] was 0.78 µg/mL, the MIC [17] was 0.025 µg/mL and the MIC [18] was 1.56 µg/mL. The MIC [19] was 1.56 µg/mL, the MIC [20] was 1.56 µg/mL and the MIC (Proteus morganii GN 5307) was 0.39 µg/mL. For the same molecule, the MIC (Proteus vulgaris GN 76) was 1.56 µg/mL, the MIC [21] was 0.1 µg/mL and the MIC (Proteus vulgaris GN 4413) was 1.56 µg/mL. The MIC [22] was 0.1 µg/mL, the MIC [23] was 0.78 µg/mL and the MIC (Proteus vulgaris GN 7919) was 1.56 µg/mL. It also gave an MIC [24] of 0.2 µg/mL, an MIC [25] of 0.2 µg/mL and an MIC (Escherichia coli No. 96) of 0.025 µg/mL. It also gave an MIC (Escherichia coli GN 5482) of 0.025 µg/mL, an MIC (Serratia marcescens L-65) of 0.2 µg/mL and an MIC [26] of 0.1 µg/mL. For the same molecule, the MIC (Proteus morganii GN 5407) was 1.56 µg/mL, the MIC [27] was 1.56 µg/mL and the MIC [28] was 0.2 µg/mL. The MIC [29] was 0.39 µg/mL, the MIC (Serratia marcescens L-82) was 0.1 µg/mL and the MIC [30] was 1.56 µg/mL. For the same molecule, the MIC (Proteus morganii GN 5375) was 1.56 µg/mL, the MIC [31] was 0.1 µg/mL and the MIC [32] was 0.1 µg/mL. It also gave an MIC [33] of 0.025 µg/mL, an MIC [34] of 0.1 µg/mL and an MIC [35] of 0.1 µg/mL. It also gave an MIC [36] of 0.2 µg/mL.
